Measurements reported in ChEMBL document CHEMBL3885881, “DrugMatrix”.
Several values for one entry are separate records, joined by “and”; a condition that tells them apart may be missing. Equal values may be shown once.

Species on record: Rattus norvegicus
Test: DrugMatrix - Regimen: Daily Repeat
Assay type: toxicity, organism-based, Sprague-Dawley
Parameters: regimen Daily Repeat, gender Male, age 6-8 weeks
Settings: in vivo, vehicle 100 % SALINE; for ALANINE AMINOTRANSFERASE / ALBUMIN / ALKALINE PHOSPHATASE / ASPARTATE AMINOTRANSFERASE / BLOOD UREA NITROGEN / CARBON DIOXIDE / CHLORIDE / CHOLESTEROL / CREATINE PHOSPHOKINASE / CREATININE / GLUCOSE / LACTATE DEHYDROGENASE / LIPASE / PHOSPHORUS / POTASSIUM / SODIUM / TOTAL BILIRUBIN / TOTAL PROTEIN / URIC ACID: tissue Plasma
[1] = ip, 2 mg/kg, 120 h, tissue Blood, route intraperitoneal, dose level High, time 5 day
[2] = ip, 2 mg/kg, 120 h, route intraperitoneal, dose level High, time 5 day
[3] = ip, 2 mg/kg, […], tissue Blood, route intraperitoneal, dose level High, time 14 day
[4] = ip, 2 mg/kg, […], tissue Blood, route intraperitoneal, dose level High, time 28 day
[5] = ip, 2 mg/kg, […], route intraperitoneal, dose level High, time 14 day
[6] = ip, 2 mg/kg, […], route intraperitoneal, dose level High, time 28 day
[7] = po, 0 mg/kg, 72 h, tissue Blood, route oral GAVAGE, dose level Control, time 3 day

LEAD (II) ACETATE
BASOPHIL [1]: 0.92% and 0.35% | EOSINOPHIL [1]: 1.12% and 0.5% | ERYTHROCYTE COUNT [1]: 7.54 x10E6/uL and 7.26 x10E6/uL | HEMATOCRIT [1]: 45.88% and 47.9% | HEMOGLOBIN [1]: 15 G/DL and 15.17 G/DL | LEUKOCYTE COUNT [1]: 13.21 x10E3/uL and 9.67 x10E3/uL | LYMPHOCYTE [1]: 76.12% and 82.6% | MEAN CORPUSCULAR HEMOGLOBIN [1]: 20.9 pg | MEAN CORPUSCULAR HEMOGLOBIN CONCENTRATION [1]: 32.66 G/DL and 31.67 G/DL | MEAN CORPUSCULAR VOLUME [1]: 66 fL | MONOCYTE [1]: 1.94% and 1.57% | NEUTROPHIL [1]: 19.32% and 13.95% | PLATELET COUNT [1]: 1605.4 x10E3/uL and 1679.25 x10E3/uL | ALANINE AMINOTRANSFERASE [2]: 30.6 u/L and 16 u/L | ALBUMIN [2]: 3.32 G/DL and 4.1 G/DL | ALKALINE PHOSPHATASE [2]: 221 u/L and 290.75 u/L | ASPARTATE AMINOTRANSFERASE [2]: 83.2 u/L and 78.25 u/L | BLOOD UREA NITROGEN [2]: 13.8 mg/dL and 16.75 mg/dL | CARBON DIOXIDE [2]: 24 mmol/L | CHLORIDE [2]: 109.2 MEQ/L and 108.75 MEQ/L | CHOLESTEROL [2]: 57 mg/dL and 58.25 mg/dL | CREATINE PHOSPHOKINASE [2]: 338.6 u/L and 224.25 u/L | CREATININE [2]: 0.54 mg/dL and 0.4 mg/dL | GLUCOSE [2]: 117.4 mg/dL and 114.75 mg/dL | LACTATE DEHYDROGENASE [2]: 76.2 u/L | LIPASE [2]: 36 u/L and 14.25 u/L | PHOSPHORUS [2]: 10.02 mg/dL and 13.3 mg/dL | POTASSIUM [2]: 6.38 MEQ/L and 6.15 MEQ/L | SODIUM [2]: 151.2 MEQ/L and 152.25 MEQ/L | TOTAL BILIRUBIN [2]: 0.16 mg/dL and 0.3 mg/dL | TOTAL PROTEIN [2]: 5.8 G/DL and 6.3 G/DL | URIC ACID [2]: 1.08 mg/dL and 2.1 mg/dL | ABSOLUTE BASOPHIL [3]: 88 cells/µL | ABSOLUTE EOSINOPHIL [3]: 74 cells/µL | ABSOLUTE LYMPHOCYTE [3]: 8320 cells/µL | ABSOLUTE MONOCYTE [3]: 390 cells/µL | ABSOLUTE SEGMENTED NEUTROPHIL [3]: 3420 cells/µL | HEMOGLOBIN [3]: 14.2 G/DL | MEAN CORPUSCULAR VOLUME [3]: 59.1 fL | ABSOLUTE BASOPHIL [4]: 93 cells/µL | ABSOLUTE EOSINOPHIL [4]: 130 cells/µL | ABSOLUTE LYMPHOCYTE [4]: 9520 cells/µL | ABSOLUTE MONOCYTE [4]: 320 cells/µL | ABSOLUTE SEGMENTED NEUTROPHIL [4]: 2680 cells/µL | BASOPHIL [4]: 0.79% | EOSINOPHIL [4]: 1.01% | ERYTHROCYTE COUNT [4]: 8.38 x10E6/uL | HEMATOCRIT [4]: 46.51% | HEMOGLOBIN [4]: 14.88 G/DL | LEUKOCYTE COUNT [4]: 12.81 x10E3/uL | LYMPHOCYTE [4]: 74.22% | MEAN CORPUSCULAR HEMOGLOBIN [4]: 17.76 pg | MEAN CORPUSCULAR HEMOGLOBIN CONCENTRATION [4]: 32.02 G/DL | MEAN CORPUSCULAR VOLUME [4]: 55.46 fL | MONOCYTE [4]: 2.51% | NEUTROPHIL [4]: 20.93% | PLATELET COUNT [4]: 1429.8 x10E3/uL | CARBON DIOXIDE [5]: 26 mmol/L | TOTAL PROTEIN [5]: 5.9 G/DL | ALANINE AMINOTRANSFERASE [6]: 25.8 u/L | ALBUMIN [6]: 3.52 G/DL | ALKALINE PHOSPHATASE [6]: 146.4 u/L | ASPARTATE AMINOTRANSFERASE [6]: 80.7 u/L | BLOOD UREA NITROGEN [6]: 13.3 mg/dL | CHLORIDE [6]: 109.1 MEQ/L | CHOLESTEROL [6]: 54 mg/dL | CREATINE PHOSPHOKINASE [6]: 159.1 u/L | CREATININE [6]: 0.58 mg/dL | GLUCOSE [6]: 112.6 mg/dL | LACTATE DEHYDROGENASE [6]: 73.7 u/L | LIPASE [6]: 26.7 u/L | PHOSPHORUS [6]: 9.13 mg/dL | POTASSIUM [6]: 6.27 MEQ/L | SODIUM [6]: 150.5 MEQ/L | TOTAL BILIRUBIN [6]: 0.21 mg/dL | TOTAL PROTEIN [6]: 6.39 G/DL | URIC ACID [6]: 1.41 mg/dL | ABSOLUTE BASOPHIL [7]: 0 CELLS/uL | ABSOLUTE EOSINOPHIL [7]: 37 CELLS/uL | ABSOLUTE LYMPHOCYTE [7]: 12359.33 CELLS/uL | ABSOLUTE MONOCYTE [7]: 122.67 CELLS/uL | ABSOLUTE SEGMENTED NEUTROPHIL [7]: 847.67 CELLS/uL | BASOPHIL [7]: 0% | EOSINOPHIL [7]: 0.33% | ERYTHROCYTE COUNT [7]: 5.75 x10E6/uL | HEMATOCRIT [7]: 36.08% | LEUKOCYTE COUNT [7]: 13.37 x10E3/uL | MEAN CORPUSCULAR HEMOGLOBIN CONCENTRATION [7]: 38.98 G/DL | MONOCYTE [7]: 1% | NEUTROPHIL [7]: 6.17% | NUCLEATED RED BLOOD CELLS [7]: 0.17 /100WBC | PLATELET COUNT [7]: 1202.17 x10E3/uL
